These results are taken from US5385899A, “Aminoalkyl-substituted 5,6-dihydro-dibenz[b,e]azepine-6,11-dione-11-oximes” (Bayer Aktiengesellschaft, priority 1991, dated 1995).

Read-outs that look alike come from different tables or passages of the source.

This assay has as its system HIV. Description: HIV infection in cell culture: suppression of virus-induced syncytia (PBLs or H9 cells). In kind it is cell-based. The settings on record: read-out: IC50 (suppression of 50% of virus-induced syncytia). On the procedure:
The HIV test was carried out with slight modifications according to the method of Pauwels et al. [cf. Journal of Virological Methods 20, (1988), 309-321].
Normal human blood lyphocytes (PBLs) were concentrated by means of Ficoll-Hypaque and stimulated with phytohaemagglutinin (90 μg/ml) and interleukin-2 (40 U/ml) in RPMI 1640 and 20% foetal calf serum. For infection with the infectious HIV, PBLs were pelleted and the cell pellet was then suspended in 1 ml of HIV virus adsorption solution and incubated for 1 hour at 37° C.
Alternatively, HIV-susceptible H9 cells were employed instead of normal human blood lymphocytes for testing the antiviral effects of the compounds according to the invention.
The virus adsorption solution was centrifuged and the infected cell pellet was taken up in growth medium so that a concentration of 1×10^5 cells per ml was established. The cells infected in this way were pipetted into the wells of 96-well microtiter plates to give 1×10^4 cells/well.
The first vertical row of the microtiter plate contained only growth medium and cells which had not been infected, but otherwise treated exactly as described above (cell control). The second vertical row of the microtiter plate contained only HIV-infected cells (virus control) in growth medium. The other wells contained the compounds according to the invention in differing concentrations, starting from the wells of the 3rd vertical row of the microtiter plate, from which the test substances were diluted 2^10 times in 2-fold steps.
The test batches were incubated at 37° C. until, in the untreated virus control, the syncytia formation typical of HIV occurred (between day 3 and 6 after infection), which was then microscopically assessed. Under these test conditions, in the untreated virus control about 20-50 syncytia resulted, while the untreated cell control contained no syncytia.
The IC50 values were determined as the concentration of the treated and infected cells at which 50% (about 10-20 syncytia) of the virus-induced syncytia were suppressed by treatment with the compound according to the invention.

The mark [1] stands for this setting: Human immunodeficiency virus 1, 72 h, HIV-infected PBLs or alternatively H9 cells, syncytia assessed microscopically between day 3 and 6 after infection, 37° C.

On to `CN(C)CCON=c1c2cc(Cl)ccc2[nH]c(=O)c2ccccc12` (mixture of isomers) [Example 1, (E/Z)-2-Chloro-11-(2-dimethylaminoethoxyimino)-6-oxo-5,6-dihydro-11H-dibenz[b,e] azepine], for which the IC50 under setting [1] was 380 nM.

On to `Cc1ccnc2c1NC(=O)c1cccnc1N2C1CC1` [BIRG 587, reference compound], for which the IC50 (Human immunodeficiency virus 1, H9, 72 h) was 90 nM.

With `O=c1[nH]c2ccc(Cl)cc2c(=NOCCN2CCOCC2)c2ccccc12` [Example 3], the IC50 under setting [1] was 1500 nM.

A word on the IC50: it is the concentration that inhibits the measured activity by half.
